# Target: T1, TLR8 (Homo sapiens, UniProt Q9NR97)
# T1 sequence (Q9NR97 27-1041): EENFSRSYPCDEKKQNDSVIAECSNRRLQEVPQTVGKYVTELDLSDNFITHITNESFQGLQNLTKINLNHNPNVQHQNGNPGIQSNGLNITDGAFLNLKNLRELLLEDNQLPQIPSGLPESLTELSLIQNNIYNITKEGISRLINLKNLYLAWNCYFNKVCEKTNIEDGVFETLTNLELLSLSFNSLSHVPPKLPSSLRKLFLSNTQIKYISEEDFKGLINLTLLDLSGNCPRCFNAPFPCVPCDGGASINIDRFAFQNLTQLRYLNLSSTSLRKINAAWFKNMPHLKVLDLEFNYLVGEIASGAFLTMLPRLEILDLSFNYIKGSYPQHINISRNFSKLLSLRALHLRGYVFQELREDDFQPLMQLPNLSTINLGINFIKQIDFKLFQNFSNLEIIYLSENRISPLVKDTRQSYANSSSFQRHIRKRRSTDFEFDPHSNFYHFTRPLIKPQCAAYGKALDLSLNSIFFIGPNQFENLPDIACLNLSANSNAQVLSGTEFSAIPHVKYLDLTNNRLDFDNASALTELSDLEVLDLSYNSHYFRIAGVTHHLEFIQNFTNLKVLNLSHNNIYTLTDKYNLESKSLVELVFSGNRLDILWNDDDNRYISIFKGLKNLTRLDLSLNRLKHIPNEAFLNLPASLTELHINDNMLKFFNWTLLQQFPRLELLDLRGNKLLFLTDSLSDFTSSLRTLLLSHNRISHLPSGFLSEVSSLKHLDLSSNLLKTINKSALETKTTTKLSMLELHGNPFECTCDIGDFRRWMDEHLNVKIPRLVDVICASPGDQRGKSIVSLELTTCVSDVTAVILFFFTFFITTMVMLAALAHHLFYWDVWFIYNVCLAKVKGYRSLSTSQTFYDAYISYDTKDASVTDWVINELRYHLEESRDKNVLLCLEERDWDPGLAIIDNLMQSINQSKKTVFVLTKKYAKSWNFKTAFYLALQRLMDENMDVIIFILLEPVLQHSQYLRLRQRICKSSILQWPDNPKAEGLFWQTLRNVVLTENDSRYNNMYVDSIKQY
# Experiment: huPBMC TLR8 Antagonist IL-6 TR-FRET Assay
# Assay type: cell-based
# Set-up: Fresh blood was collected from normal human donors; endogenous in cells; host or cells: human PBMCs from fresh donor blood
# Conditions: human PBMCs stimulated with ssRNA40 1 μg/ml (DOTAP), 14-16 hrs; IL-6 TR-FRET read-out
# In short: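 Human PBMCs from fresh donor blood (150,000 cells/well) stimulated 14–16 h at 37 °C with DOTAP-complexed ssRNA40 (final 1 μg/ml for TLR8, 10 μg/mL for TLR7) or ODN2216 (final 0.3 μM, TLR9), 0.25% DMSO, ten-point 1/3 compound dilutions. Supernatant IL-6 read by HTRF (TLR8); IFNα by IFNα2b AlphaLISA (TLR7/TLR9).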
row,IC50 [µM],Compound
1,0.236,"Cc1cc(N2CCc3c(c(C)nn3CC34CCC(N)(CC3)CC4)C2)c2cnn(C)c2n1 [Compound No. 1, 4-((5-(1,6-dimethyl-1H-pyrazolo[3,4-b]pyridin-4-yl)-3-methyl-4,5,6,7-tetrahydro-1H-pyrazolo[4,3-c]pyridin-1-yl)methyl)bicyclo[2.2.2]octan-1-amine]"
2,> 10,"Cc1cc(N2CCc3c(c(C)nn3CC34CCC(N)(CC3)CC4)C2)c2cn[nH]c2n1 [Compound No. 2, 4-((3-methyl-5-(6-methyl-1H-pyrazolo[3,4-b]pyridin-4-yl)-4,5,6,7-tetrahydro-1H-pyrazolo[4,3-c]pyridin-1-yl)methyl)bicyclo[2.2.2]octan-1-amine]"
3,> 10,"Cc1cc(N2CCc3c(c(C)nn3CC34CCC(N(C)C(=O)OC(C)(C)C)(CC3)CC4)C2)c2cnn(C)c2n1 [Compound No. 49, tert-butyl (4-((5-(1,6-dimethyl-1H-pyrazolo[3,4-b]pyridin-4-yl)-3-methyl-4,5,6,7-tetrahydro-1H-pyrazolo[4,3-c]pyridin-1-yl)methyl)bicyclo[2.2.2]octan-1-yl)(methyl)carbamate]"
4,0.308,"CNC12CCC(Cn3nc(C)c4c3CCN(c3cc(C)nc5c3cnn5C)C4)(CC1)CC2 [Compound No. 50, 4-((5-(1,6-dimethyl-1H-pyrazolo[3,4-b]pyridin-4-yl)-3-methyl-4,5,6,7-tetrahydro-1H-pyrazolo[4,3-c]pyridin-1-yl)methyl)-N-methylbicyclo[2.2.2]octan-1-amine]"
5,> 10,"Cc1cc(N2CCc3c(c(C)nn3CC34CCC(NC(=O)OC5(C)CC5)(CC3)CC4)C2)c2cnn(C)c2n1 [Compound No. 51, 1-methylcyclopropyl (4-((5-(1,6-dimethyl-1H-pyrazolo[3,4-b]pyridin-4-yl)-3-methyl-4,5,6,7-tetrahydro-1H-pyrazolo[4,3-c]pyridin-1-yl)methyl)bicyclo[2.2.2]octan-1-yl)carbamate]"
6,1.14,"COc1ccc(Cn2ncc3c(N4CCc5c(c(C)nn5CC56CCC(N)(CC5)CC6)C4)cc(C)nc32)cc1 [Compound No. 53, 4-((5-(1-(4-methoxybenzyl)-6-methyl-1H-pyrazolo[3,4-b]pyridin-4-yl)-3-methyl-4,5,6,7-tetrahydro-1H-pyrazolo[4,3-c]pyridin-1-yl)methyl)bicyclo[2.2.2]octan-1-amine]"
7,0.053,"Cc1cc(N2CCc3c(c(C)nn3CC34CCC(N5CCCC5)(CC3)CC4)C2)c2cnn(C)c2n1 [Compound No. 58, 5-(1,6-dimethyl-1H-pyrazolo[3,4-b]pyridin-4-yl)-3-methyl-1-((4-(pyrrolidin-1-yl)bicyclo[2.2.2]octan-1-yl)methyl)-4,5,6,7-tetrahydro-1H-pyrazolo[4,3-c]pyridine]"
8,0.052,"Cc1cc(N2CCc3c(c(C)nn3CC34CCC(N5CCOCC5)(CC3)CC4)C2)c2cnn(C)c2n1 [Compound No. 59, 4-(4-((5-(1,6-dimethyl-1H-pyrazolo[3,4-b]pyridin-4-yl)-3-methyl-4,5,6,7-tetrahydro-1H-pyrazolo[4,3-c]pyridin-1-yl)methyl)bicyclo[2.2.2]octan-1-yl)morpholine]"
9,0.031,"COCCNC12CCC(Cn3nc(C)c4c3CCN(c3cc(C)nc5c3cnn5C)C4)(CC1)CC2 [Compound No. 69, 4-((5-(1,6-dimethyl-1H-pyrazolo[3,4-b]pyridin-4-yl)-3-methyl-4,5,6,7-tetrahydro-1H-pyrazolo[4,3-c]pyridin-1-yl)methyl)-N-(2-methoxyethyl)bicyclo[2.2.2]octan-1-amine]"
10,0.316,"Cc1cc(N2CCc3c(c(C)nn3CC34CCC(N(C)C5COC5)(CC3)CC4)C2)c2cnn(C)c2n1 [Compound No. 77, N-(4-((5-(1,6-dimethyl-1H-pyrazolo[3,4-b]pyridin-4-yl)-3-methyl-4,5,6,7-tetrahydro-1H-pyrazolo[4,3-c]pyridin-1-yl)methyl)bicyclo[2.2.2]octan-1-yl)-N-methyloxetan-3-amine]"
11,0.831,"Cc1nn(CC23CCC(N)(CC2)CC3)c2c1CN(c1ccnc(-c3ccc(C#N)cc3)c1)CC2 [Compound No. 84, 4-(4-(1-((4-aminobicyclo[2.2.2]octan-1-yl)methyl)-3-methyl-6,7-dihydro-1H-pyrazolo[4,3-c]pyridin-5(4H)-yl)pyridin-2-yl)benzonitrile]"
12,> 10,"Cc1cc(N2CCc3c(c(C)nn3CC34CCC(O)(CC3)CC4)C2)c2cnn(C)c2n1 [compound 46, 4-((5-(1,6-dimethyl-1H-pyrazolo[3,4-b]pyridin-4-yl)-3-methyl-4,5,6,7-tetrahydro-1H-pyrazolo[4,3-c]pyridin-1-yl)methyl)bicyclo[2.2.2]octan-1-ol]"
13,> 10,"Cc1cc(N2CCc3nn(CC45CC(N)(C4)C5)c(C)c3C2)c2cnn(C)c2n1 [compound 52, 3-((5-(1,6-dimethyl-1H-pyrazolo[3,4-b]pyridin-4-yl)-3-methyl-4,5,6,7-tetrahydro-2H-pyrazolo[4,3-c]pyridin-2-yl)methyl)bicyclo[1.1.1]pentan-1-amine]"
14,0.074,"Cc1cc(N2CCc3c(c(C)nn3CC34CCC(NC5CCC5)(CC3)CC4)C2)c2cnn(C)c2n1 [compound 54, N-cyclobutyl-4-((5-(1,6-dimethyl-1H-pyrazolo[3,4-b]pyridin-4-yl)-3-methyl-4,5,6,7-tetrahydro-1H-pyrazolo[4,3-c]pyridin-1-yl)methyl)bicyclo[2.2.2]octan-1-amine]"
15,0.42,"Cc1cc(N2CCc3c(c(C)nn3CC34CCC(NC(C)C)(CC3)CC4)C2)c2cnn(C)c2n1 [compound 55, 4-((5-(1,6-dimethyl-1H-pyrazolo[3,4-b]pyridin-4-yl)-3-methyl-4,5,6,7-tetrahydro-1H-pyrazolo[4,3-c]pyridin-1-yl)methyl)-N-isopropylbicyclo[2.2.]octan-1-amine]"
16,0.292,"Cc1cc(N2CCc3c(c(C)nn3CC34CCC(NC(C)CO)(CC3)CC4)C2)c2cnn(C)c2n1 (stereo not drawn) [compound 56, 2-((4-((5-(1,6-dimethyl-1H-pyrazolo[3,4-b]pyridin-4-yl)-3-methyl-4,5,6,7-tetrahydro-1H-pyrazolo[4,3-c]pyridin-1-yl)methyl)bicyclo[2.2.2]octan-1-yl)amino)propan-1-ol]"
17,0.11,"CCNC12CCC(Cn3nc(C)c4c3CCN(c3cc(C)nc5c3cnn5C)C4)(CC1)CC2 [compound 57, 4-((5-(1,6-dimethyl-1H-pyrazolo[3,4-b]pyridin-4-yl)-3-methyl-4,5,6,7-tetrahydro-1H-pyrazolo[4,3-c]pyridin-1-yl)methyl)-N-ethylbicyclo[2.2.]octan-1-amine]"
18,0.115,"Cc1cc(N2CCc3c(c(C)nn3CC34CCC(N5CCC5)(CC3)CC4)C2)c2cnn(C)c2n1 [compound 64, 1-((4-(azetidin-1-yl)bicyclo[2.2.2]octan-1-yl)methyl)-5-(1,6-dimethyl-1H-pyrazolo[3,4-b]pyridin-4-yl)-3-methyl-4,5,6,7-tetrahydro-1H-pyrazolo[4,3-c]pyridine]"
19,0.014,"CCOCCNC12CCC(Cn3nc(C)c4c3CCN(c3cc(C)nc5c3cnn5C)C4)(CC1)CC2 [compound 71, 4-((5-(1,6-dimethyl-1H-pyrazolo[3,4-b]pyridin-4-yl)-3-methyl-4,5,6,7-tetrahydro-1H-pyrazolo[4,3-c]pyridin-1-yl)methyl)-N-(2-ethoxyethyl)bicyclo[2.2.2]octan-1-amine]"
20,0.102,"CCOCCN(CCOCC)C12CCC(Cn3nc(C)c4c3CCN(c3cc(C)nc5c3cnn5C)C4)(CC1)CC2 [compound 72, 4-((5-(1,6-dimethyl-1H-pyrazolo[3,4-b]pyridin-4-yl)-3-methyl-4,5,6,7-tetrahydro-1H-pyrazolo[4,3-c]pyridin-1-yl)methyl)-N,N-bis(2-ethoxyethyl)bicyclo[2.2.2]octan-1-amine]"
21,0.158,"Cc1cc(N2CCc3c(c(C)nn3CC34CCC(N5C[C@@H](O)[C@@H](O)C5)(CC3)CC4)C2)c2cnn(C)c2n1 [compound 74, (3S,4R)-1-(4-((5-(1,6-dimethyl-1H-pyrazolo[3,4-b]pyridin-4-yl)-3-methyl-4,5,6,7-tetrahydro-1H-pyrazolo[4,3-c]pyridin-1-yl)methyl)bicyclo[2.2.2]octan-1-yl)pyrrolidine-3,4-diol]"
